Results from patent publication US20060084134A1, “Direct ethanol metabolite ethyl sulfate as an useful diagnostic and therapeutic marker of alcohol consumption” (priority 2004, published 2006).
Where a name gives a salt, the structure may show the parent alone. Read-outs that look alike come from different tables or passages of the source. Values belong to the molecule of their own block, whether it stands above or below them.

Experiments:
[1] = Controlled drinking experiment with a healthy volunteer: urinary excretion profile by LC-MS/MS; settings: for UAC (urine alcohol concentration): 540 ml wine, 49 g ethanol
Experimental: (§1) Characteristic tandem-mass spectrometric fragmention of EtS, purchased from ABCR Karlsruhe/Germany, was obtained when analyzing EtS solution in product ion scan mode: deprotonated molecule (M-H)^−, m/z 125 and fragment ions m/z 80 and 97. An LC-MS/MS-method, which has previously been published for the determination of EtG (Weinmann 2004), was modified by inclusion of the transitions for EtS. Subsequent LC/MS/MS-analysis was performed in MRM-mode (m/z 125 to m/z 97 and m/z 80 and by monitoring the unfragmented precursor ion (m/z 125) of EtS (ion chromatograms of diluted reference solution see FIG. 1). A gradient elution with increasing acetonitrile concentration of the eluting solvent was used—all other chromatographic equipment was as described in the article by Weinmann et al. (Weinmann 2004).
(§2) Sample preparation was done by addition of D5-EtG and dilution of the urine sample prior to injection in the LC-MS/MS system. Quantification was performed using D5-EtG as internal standard.

[2] = human, in vivo
Experimental: as §1, §2

[3] = cited from earlier work
[4] = cited from earlier work; remark: listed apart in the source

time since which urinary ethanol (UAC) had not been detectable ([1]; counted back from the 36 hours time point): 23 h
UAC (urine alcohol concentration) ([1]; 0 h:min after ethanol uptake): 0.003 g %
UAC (urine alcohol concentration) ([1]; 1:00 h:min after ethanol uptake): 0.022 g %
UAC (urine alcohol concentration) ([1]; 2:06 h:min after ethanol uptake): 0.078 g %
UAC (urine alcohol concentration) ([1]; 2:46 h:min after ethanol uptake): 0.082 g %
UAC (urine alcohol concentration) ([1]; 8:00 h:min after ethanol uptake): 0.046 g %
UAC (urine alcohol concentration) ([1]; 11:20 h:min after ethanol uptake): 0.003 g %
UAC (urine alcohol concentration) ([1]; 13:20 h:min after ethanol uptake): 0 g %
UAC (urine alcohol concentration) ([1]; 14:50 h:min after ethanol uptake): 0 g %
UAC (urine alcohol concentration) ([1]; 16:40 h:min after ethanol uptake): 0 g %
UAC (urine alcohol concentration) ([1]; 19:10 h:min after ethanol uptake): 0 g %
UAC (urine alcohol concentration) ([1]; 21:30 h:min after ethanol uptake): 0 g %
UAC (urine alcohol concentration) ([1]; 26:30 h:min after ethanol uptake): 0 g %
UAC (urine alcohol concentration) ([1]; 32:00 h:min after ethanol uptake): 0 g %
UAC (urine alcohol concentration) ([1]; 36:00 h:min after ethanol uptake): 0 g %
Molecule: CCO [ethanol]

time detectable in urine [2]: up to 36 hours
Molecule: CCOS(=O)(=O)O [EtS, ethyl sulfate]

detection in urine at the last time point [2]: positive
Molecule: CCO[C@@H]1O[C@H](C(=O)O)[C@@H](O)[C@H](O)[C@H]1O [EtG, ethyl glucuronide]
time detectable following complete elimination of alcohol from the body ([3]; dose-dependently, after even minor amounts of alcohol like 10 grams): 4 days
time detectable in hair [3]: months
time detectable in urine after cessation of ethanol intake ([3]; urine): up to 5 days
water solubility (in words) [4]: water-soluble

Molecule: fatty acid ethyl esters [FAEEs]
time detectable in hair [3]: several months
time detectable in hair ([3]; listed as FAEE): months
time detectable in serum and erythrocytes after drinking ([3]; serum and erythrocytes): up to 24 h
time detectable in serum after cessation of ethanol intake ([3]; serum): up to 24 h
stability in blood samples (in words) ([4]; blood samples, continued enzyme activity): not stable

Molecule: phosphatidylethanol [PEth]
time detectable in whole blood after cessation of ethanol intake ([3]; whole blood): > 2 weeks
